Measured values taken from patent publication US20230120736A1, “ANTI-CD98 ANTIBODIES AND ANTIBODY DRUG CONJUGATES” (AbbVie Inc., priority 2016, published 2023).

Tests used:
[1] = tested on: A549 human lung carcinoma xenograft; experiment: A549 FP3 xenograft tumor growth inhibition, with or without docetaxel; assay type: in vivo, mouse; settings: QDx1, Ab095 8 IP, docetaxel 7.5 IV, ADC 10 mg/kg/day IP
Protocol: (§1) The cell lines A549 and NCI-H460 were obtained from the American Type Culture Collection (ATCC, Manassas, Va.). A549 cell line was further passaged in mice as flank xenograft to improve xenograft tumor growth, resulting in the A549-FP3 line. Cells were cultured as monolayers in RPMI-1640 culture media (Invitrogen, Carlsbad, Calif.) supplemented with 10% Fetal Bovine Serum (FBS, Hyclone, Logan, Utah). To generate xenografts, 5×10^6 (A549 and NCI-H460) viable cells were inoculated subcutaneously into the right flank of immune deficient female SCID-bg mice (Charles River Laboratories, Wilmington, Mass.). The injection volume was 0.2 ml and composed of 1:1 S-MEM:Matrigel Matrigel (BD, Franklin Lakes, N.J.). Tumors were size matched at approximately 223 mm^3. […] Measurements of the length (L) and width (W) of the tumor were taken via electronic caliper and the volume was calculated according to the following equation: V=L×W^2/2. […]
(§2) To refer to efficacy of therapeutic agents, parameters of amplitude (TGI.), durability (TGD) are used. […] Tumor growth inhibition is calculated by 100*(1−Tv/Cv) where Tv and Cv are the mean tumor volumes of the treated and control groups, respectively. […] TGD is calculated by 100*(Tt/Ct−1) where Tt and Ct are the median time periods to reach 1 cm^3 of the treated and control groups, respectively.

[2] = tested on: NCI-H460 human lung carcinoma xenograft; experiment: NCI-H460 xenograft tumor growth inhibition, with or without docetaxel; assay type: in vivo, mouse; settings: QDx1, Ab095 8 IP, docetaxel 7.5 IV, ADC 10 mg/kg/day IP
Protocol: as §1, §2

## CC(=O)O[C@@]12CO[C@@H]1C[C@H](O)[C@@]1(C)C(=O)[C@H](O)C3=C(C)[C@@H](OC(=O)[C@H](O)[C@@H](NC(=O)OC(C)(C)C)c4ccccc4)C[C@@](O)([C@@H](OC(=O)c4ccccc4)[C@H]21)C3(C)C [Docetaxel, docetaxel, reference compound]
[1]
  TGD: 80%
  TGImax: 62%
[2]
  TGD: 30%
  TGImax: 35%
